# In patent US7253286B2, “Nitrogen-containing aromatic derivatives” (Eisai Co., Ltd, priority 2000, dated 2007):
# Assays:
# [1] = molecular target: T1, VEGFR2 (Homo sapiens, UniProt P35968); experiment: Inhibition against VEGFR2 kinase (receptor tyrosine kinase activity, HTRF method); type: biochemical; settings: His6-VEGFR2 cytoplasmic domain, biotin-poly(GT) substrate, ATP, 30° C. 10 minutes, read-out: IC50 (concentration required for 50% inhibition of VEGFR2 kinase activity)
# T1 construct: coding for the cytoplasmic domain, beginning with lysine 791 and including the termination codon; made in house; host or cells: Sf9 insect cells (baculovirus, pFastBacHis)
# T1 sequence (P35968 786-1356 limits assumed): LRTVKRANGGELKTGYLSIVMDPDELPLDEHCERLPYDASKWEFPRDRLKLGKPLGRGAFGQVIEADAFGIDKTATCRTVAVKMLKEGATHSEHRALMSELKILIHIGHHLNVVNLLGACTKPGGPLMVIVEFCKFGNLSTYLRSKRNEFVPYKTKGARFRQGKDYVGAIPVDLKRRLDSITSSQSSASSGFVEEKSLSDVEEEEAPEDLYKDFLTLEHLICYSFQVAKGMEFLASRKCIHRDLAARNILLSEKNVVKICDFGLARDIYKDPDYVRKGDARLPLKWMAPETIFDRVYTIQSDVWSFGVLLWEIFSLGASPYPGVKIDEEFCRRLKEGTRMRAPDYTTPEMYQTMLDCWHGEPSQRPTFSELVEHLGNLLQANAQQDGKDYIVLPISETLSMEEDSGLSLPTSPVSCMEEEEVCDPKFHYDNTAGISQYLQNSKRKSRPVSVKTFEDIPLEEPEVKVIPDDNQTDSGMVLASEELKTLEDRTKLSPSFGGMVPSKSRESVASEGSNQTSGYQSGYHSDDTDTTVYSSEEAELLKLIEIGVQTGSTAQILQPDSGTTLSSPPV
# Procedure, shortened: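 Construct: His6-tagged VEGFR2 cytoplasmic domain (from Lys791), expressed in Sf9 cells. Kinase step: biotin-poly(Glu4:Tyr1) substrate, ATP added as 10 μl of 4 μM, Hepes pH 7.4 with Mg2+/Mn2+, 30 °C for 10 min, EDTA stop. Phosphotyrosine product measured by HTRF.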
# [2] = system: Human Umbilical Vein Endothelial Cells (HUVECs); experiment: Inhibition against invasive tube formation by vascular endothelial cells in response to stimulation by angiogenic factor mixture; type: cell-based; design: key: the number of tubes formed in the absence of the test substance was designated as +++; scored on the 5-level scale of +++, ++, +, +/−, −; scored on the 5-level scale of +++, ++, +, +/−, −; scored on the 5-level scale of +++, ++, +, +/−, −; − was assigned if absolutely no tubes formed; settings: HUVEC on fibrin gel, EGF/FGF2/VEGF/HGF/TNF-α mixture, 6th day, MTT staining; for number of tubes formed in the fibrin gel (score) at 0.01 μM: test substance 0.01 μM; for number of tubes formed in the fibrin gel (score) at 0.1 μM: test substance 0.1 μM; for number of tubes formed in the fibrin gel (score) at 1.0 μM: test substance 1.0 μM
# Procedure, shortened: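 HUVECs seeded on fibrin gel in Transwells were cultured with compound plus EGF, FGF2, VEGF, HGF and TNF-α in serum-free medium at 37 °C; medium with factors and compound was renewed on days 2 and 4. On day 6, MTT-stained tubes were counted microscopically and scored on a five-level scale from +++ (no-compound control) to −.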
SMILES,IC50 [1],number of tubes formed in the fibrin gel (score) at 0.01 μM [2],number of tubes formed in the fibrin gel (score) at 0.1 μM [2],number of tubes formed in the fibrin gel (score) at 1.0 μM [2]
"N#CCCCOc1cc2nccc(Oc3ccc(NC(=O)Nc4ccc(F)cc4F)c(F)c3)c2cc1C#N [Example 55, N-(4-(6-Cyano-7-(3-cyanopropoxy)-4-quinolyl)oxy-2-fluorophenyl)-N′-(2,4-difluorophenyl)urea]",29 nM,+++,+/−,+/−
"COCCOc1cc2nccc(Oc3ccc(NC(=O)Nc4ccc(F)cc4)c(F)c3)c2cc1C#N [Example 100, N-(4-(6-Cyano-7-(2-methoxyethoxy)-4-quinolyl)oxy-2-fluorophenyl)-N′-(4-fluorophenyl)urea]",9.6 nM,++,+/−,+/−
"CCNC(=O)n1ccc2cc(Oc3ccnc4cc(OC)c(C(N)=O)cc34)ccc21 [Example 316, 6-Carbamoyl-4-(1-ethylcarbamoyl-1H-indol-5-yloxy)-7-methoxyquinoline]",6.4 nM,+/−,−,−
"NC(=O)c1cc2c(Oc3ccc(NC(=O)NC4CC4)c(F)c3)ccnc2cc1OCCCN1CCOCC1 [Example 374, 4-(4-(Cyclopropylaminocarbonyl)amino-3-fluorophenoxy)-7-(3-(4-morpholino)propoxy)-6-quinolinecarboxamide]",8.4 nM,+/−,−,−
"COc1cc2nccc(Oc3ccc(NC(=O)NC4CC4)c(Cl)c3)c2cc1C(=O)NCCS(C)(=O)=O [Example 404, N6-(2-(Methylsulfonyl)ethyl)-4-(3-chloro-4-(((cyclopropylamino)carbonyl)amino)phenoxy)-7-methoxy-6-quinolinecarboxamide]",6.5 nM,−,−,−
